Measured values published in PubChem BioAssay AID1963838 (Molecular Pharmacology Branch, DTP, NCI, 2024).

Tested on: 855422-203-R-J1-PDC complex spheroid viability
Experiment: Anticancer human tumor 855422-203-R-J1-PDC patient-derived bladder carcinoma cell line growth inhibition [POLQ]
Conditions: for IC50: curve of first compound; for viability, T/C: stronger effect = lower value
Procedure, shortened: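 Three-cell-type spheroids modelling solid tumor plus stroma served as the readout system; POL inhibitors were tested individually and in combination, concentration ranges set by clinical Cmax where known.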

[1] = second compound 0.0316 µM, first compound 0.0316 µM
[2] = second compound 0.0316 µM, first compound 0.1 µM
[3] = second compound 0.0316 µM, first compound 0.316 µM
[4] = second compound 0.0316 µM, first compound 1 µM
[5] = second compound 0.1 µM, first compound 0.0316 µM
[6] = second compound 0.1 µM, first compound 0.1 µM
[7] = second compound 0.1 µM, first compound 0.316 µM
[8] = second compound 0.1 µM, first compound 1 µM
[9] = second compound 0.316 µM, first compound 0.0316 µM
[10] = second compound 0.316 µM, first compound 0.1 µM
[11] = second compound 0.316 µM, first compound 0.316 µM
[12] = second compound 0.316 µM, first compound 1 µM
[13] = second compound 1 µM, first compound 0.0316 µM
[14] = second compound 1 µM, first compound 0.1 µM
[15] = second compound 1 µM, first compound 0.316 µM
[16] = second compound 1 µM, first compound 1 µM
[17] = second compound 3.16 µM, first compound 0.0316 µM
[18] = second compound 3.16 µM, first compound 0.1 µM
[19] = second compound 3.16 µM, first compound 0.316 µM
[20] = second compound 3.16 µM, first compound 1 µM
[21] = second compound 10 µM, first compound 0.0316 µM
[22] = second compound 10 µM, first compound 0.1 µM
[23] = second compound 10 µM, first compound 0.316 µM
[24] = second compound 10 µM, first compound 1 µM
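Further: spheroids exposed to compounds for seven days before readout.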

C=CCn1c(=O)c2cnc(Nc3ccc(N4CCN(C)CC4)cc3)nc2n1-c1cccc(C(C)(C)O)n1 + Cc1cccc(N(C)C(=O)C2C(O)CCN2c2nc(C)cc(C(F)(F)F)c2C#N)c1
IC50 (second compound 0.0316 µM): > 1 µM | IC50 (second compound 0.1 µM): > 1 µM | IC50 (second compound 0.316 µM): > 1 µM | IC50 (second compound 1 µM): > 1 µM | IC50 (second compound 3.16 µM): > 1 µM | IC50 (second compound 10 µM): > 1 µM | viability, T/C (second compound 0.0316 µM, first compound 0.00316 µM): 109% | viability, T/C (second compound 0.0316 µM, first compound 0.01 µM): 124% | viability, T/C [1]: 98% | viability, T/C [2]: 100% | viability, T/C [3]: 113% | viability, T/C [4]: 148% | viability, T/C (second compound 0.1 µM, first compound 0.00316 µM): 110% | viability, T/C (second compound 0.1 µM, first compound 0.01 µM): 122% | viability, T/C [5]: 93% | viability, T/C [6]: 99% | viability, T/C [7]: 124% | viability, T/C [8]: 175% | viability, T/C (second compound 0.316 µM, first compound 0.00316 µM): 102% | viability, T/C (second compound 0.316 µM, first compound 0.01 µM): 101% | viability, T/C [9]: 95.7% | viability, T/C [10]: 101% | viability, T/C [11]: 126% | viability, T/C [12]: 173% | viability, T/C (second compound 1 µM, first compound 0.00316 µM): 87.7% | viability, T/C (second compound 1 µM, first compound 0.01 µM): 112% | viability, T/C [13]: 91.1% | viability, T/C [14]: 118% | viability, T/C [15]: 124% | viability, T/C [16]: 165% | viability, T/C (second compound 3.16 µM, first compound 0.00316 µM): 91.4% | viability, T/C (second compound 3.16 µM, first compound 0.01 µM): 107% | viability, T/C [17]: 100% | viability, T/C [18]: 105% | viability, T/C [19]: 115% | viability, T/C [20]: 186% | viability, T/C (second compound 10 µM, first compound 0.00316 µM): 119% | viability, T/C (second compound 10 µM, first compound 0.01 µM): 105% | viability, T/C [21]: 115% | viability, T/C [22]: 137% | viability, T/C [23]: 208% | viability, T/C [24]: 123%

CNCc1ccc(-c2[nH]c3cc(F)cc4c3c2CCNC4=O)cc1 + Cc1cccc(N(C)C(=O)C2C(O)CCN2c2nc(C)cc(C(F)(F)F)c2C#N)c1
IC50 (second compound 0.0316 µM): > 10 µM | IC50 (second compound 0.1 µM): > 10 µM | IC50 (second compound 0.316 µM): > 10 µM | IC50 (second compound 1 µM): > 10 µM | IC50 (second compound 3.16 µM): > 10 µM | IC50 (second compound 10 µM): > 10 µM | viability, T/C [1]: 115% | viability, T/C [2]: 101% | viability, T/C [3]: 99.2% | viability, T/C [4]: 104% | viability, T/C (second compound 0.0316 µM, first compound 3.16 µM): 114% | viability, T/C (second compound 0.0316 µM, first compound 10 µM): 108% | viability, T/C [5]: 101% | viability, T/C [6]: 101% | viability, T/C [7]: 90.5% | viability, T/C [8]: 107% | viability, T/C (second compound 0.1 µM, first compound 3.16 µM): 111% | viability, T/C (second compound 0.1 µM, first compound 10 µM): 106% | viability, T/C [9]: 107% | viability, T/C [10]: 115% | viability, T/C [11]: 112% | viability, T/C [12]: 103% | viability, T/C (second compound 0.316 µM, first compound 3.16 µM): 113% | viability, T/C (second compound 0.316 µM, first compound 10 µM): 120% | viability, T/C [13]: 101% | viability, T/C [14]: 105% | viability, T/C [15]: 101% | viability, T/C [16]: 103% | viability, T/C (second compound 1 µM, first compound 3.16 µM): 114% | viability, T/C (second compound 1 µM, first compound 10 µM): 105% | viability, T/C [17]: 112% | viability, T/C [18]: 108% | viability, T/C [19]: 118% | viability, T/C [20]: 98.8% | viability, T/C (second compound 3.16 µM, first compound 3.16 µM): 108% | viability, T/C (second compound 3.16 µM, first compound 10 µM): 111% | viability, T/C [21]: 110% | viability, T/C [22]: 95.6% | viability, T/C [23]: 100% | viability, T/C [24]: 104% | viability, T/C (second compound 10 µM, first compound 3.16 µM): 116% | viability, T/C (second compound 10 µM, first compound 10 µM): 107%
